# Measurements reported in US9296778B2, “3′,5′-cyclic phosphate prodrugs for HCV infection” (Idenix Pharmaceuticals, Inc., priority 2012, dated 2016).
# Tests used:
# [1] = Stability in simulated gastric fluid; type: in vitro ADME; conditions: 100 μM, 2 hours at 37° C., percent of the peak area at time zero
# In short: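 Compounds at 100 μM final, in duplicate, kept 2 h at 37° C in USP gastric fluid (pepsin) or intestinal fluid (pancreatin). Quenched with cold acetonitrile, supernatant analysed by C-18 HPLC, UV 252 nm. Remaining compound expressed as percent of time-zero peak area.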
# [2] = Stability in mouse blood; type: in vitro ADME; conditions: on ice, percent unchanged test compound
# In short: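 Test compound at 0.5 μM final in whole blood, held on ice; sampled at 0, 0.5 and 1 hr in triplicate. Samples quenched with acetonitrile containing internal standard and analysed by LC-MS/MS; percent unchanged compound from peak area ratio to internal standard.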
# [3] = Plasma pharmacokinetics following a single oral dose in CD-1 mice; type: in vivo; conditions: single oral dose 25 mg/kg in PEG 200, CD-1 male mice; given at 1 μmol/kg
# In short: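 Male CD-1 mice given a single oral 25 mg/kg dose in PEG 200, with terminal plasma and liver taken from three animals per time point at 4, 12 and 24 h. Plasma 2′-methylguanosine measured by LC-MS/MS in positive ion mode with a deuterated internal standard, calibrated over 0.500 (LLOQ) to 200 ng/mL.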
# [4] = Liver pharmacokinetics following a single oral dose in CD-1 mice; type: in vivo; conditions: single oral dose 25 mg/kg in PEG 200, CD-1 male mice; given at 1 μmol/kg
# In short: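 Male CD-1 mice given 25 mg/kg test compound orally in PEG 200; liver snap-frozen in situ at 4, 12 and 24 h (3 per time). Liver 2′-MeGTP measured after TCA homogenization and anion-exchange SPE by LC-MS/MS, calibration 50–50000 pmol/g liver.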
# [5] = in vitro; conditions: human, HCV Replicon CC50, Zluc cells, CellTiter-Blue
structure (smiles),measurement,setting,value
"CCOc1nc(N)nc2c1ncn2[C@@H]1O[C@@H]2COP(=O)(OCCCC(=O)OC(C)C)O[C@H]2[C@@]1(C)F (single isomer, unassigned) [Compound 20 Diastereomer 1]",Stability SGF,[1],98%
same,Stability WB_Mouse (ice; 1 hr),[2],1%
same,Ms Plasma 2′-MeG AUC,[3],58 pmol · hr/mL at 1 μmol/kg
same,Ms Plasma 2′-MeG Cmax,[3],5.9 pmol/mL at 1 μmol/kg
same,Ms Liver 2′-MeGTP AUC,[4],410 pmol · hr/g at 1 μmol/kg
same,CC50,[5],> 50 µM
